Measured values from ChEMBL document CHEMBL1201862, “PubChem BioAssay data set” (2004).
The source made the active and inactive calls.

Legend:
[1] = inhibitors of firefly luciferase expression or activity, dose response, H4 neuroglioma cells, luminescence (AID 1990); assay type: functional, cell-based
[2] = Luminescence Cell-Based Dose Response HTS to Identify Inhibitors of 5'UTR Stem-Loop Driven Prion Protein mRNA Translation in H4 Neuroglioblastoma Cells. [Related pubchem assays: 1827 (Project Summary), 1813 (Primary HTS)]; assay type: functional
[3] = inhibitors of SNCA 5'UTR-driven reporter translation, confirmation, H4 neuroglioma cells, luminescence (AID 1988); assay type: functional, cell-based
[4] = tested on: CHO-K1; test: (§1) Counterscreen for antagonists of the orexin 1 receptor (OX1R; HCRTR1): Homogeneous time resolved fluorescence (HTRF)-based cell-based dose response assay to identify antagonists of the parental CHO-K1 cell line. [Related pubchem assays (depositor defined):AID434989, AID435008, AID463079, AID485270, AID492963, AID492964, AID492965, AID493232, AID504699, AID504701]; assay type: functional; conditions: Cricetulus griseus
[5] = as §1, with “Fluorescence-based” for “Homogeneous time resolved fluorescence (HTRF)-based”, “cell-based high throughput” for “cell-based”, “CHO” for “CHO-K1”; assay type: functional
[6] = target: T1, Orexin/Hypocretin receptor type 1 (Homo sapiens, UniProt O43613); test: Homogeneous Time Resolved Fluorescence (HTRF)-based cell-based high throughput dose response assay for antagonists of the orexin 1 receptor (OX1R; HCRTR1). [Related pubchem assays (depositor defined):AID434989, AID435008, AID463079, AID485270, AID492963, AID492964, AID492965, AID493232, AID504717, AID504718]; assay type: functional
T1 sequence (O43613 whole entry): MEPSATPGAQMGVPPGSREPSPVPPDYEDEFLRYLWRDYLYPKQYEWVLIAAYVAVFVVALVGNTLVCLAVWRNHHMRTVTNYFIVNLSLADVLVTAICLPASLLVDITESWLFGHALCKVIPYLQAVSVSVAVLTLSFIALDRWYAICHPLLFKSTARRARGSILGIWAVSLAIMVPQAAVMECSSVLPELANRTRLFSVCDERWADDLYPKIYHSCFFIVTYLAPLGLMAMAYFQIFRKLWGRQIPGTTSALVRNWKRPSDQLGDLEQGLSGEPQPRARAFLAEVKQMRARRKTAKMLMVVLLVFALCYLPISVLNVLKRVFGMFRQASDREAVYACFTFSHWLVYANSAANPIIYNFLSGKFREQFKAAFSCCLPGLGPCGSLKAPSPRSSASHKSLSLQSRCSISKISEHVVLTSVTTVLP

[7] = target: T1, Orexin/Hypocretin receptor type 1; test: Fluorescence-based cell-based high throughput dose response assay for antagonists of the orexin 1 receptor (OX1R; HCRTR1). [Related pubchem assays (depositor defined):AID434989, AID435008, AID463079, AID485270, AID492963, AID492964, AID492965, AID493232, AID504717, AID504718]; assay type: functional
[8] = target: T2, Orexin receptor type 2 (Homo sapiens, UniProt O43614); test: Counterscreen assay for antagonists of the orexin 1 receptor (OX1R; HCRTR1): Fluorescence-based cell-based dose response assay for antagonists of the orexin 2 receptor (OX2R; HCRTR2), run by assay provider.; assay type: functional
T2 sequence (O43614 whole entry): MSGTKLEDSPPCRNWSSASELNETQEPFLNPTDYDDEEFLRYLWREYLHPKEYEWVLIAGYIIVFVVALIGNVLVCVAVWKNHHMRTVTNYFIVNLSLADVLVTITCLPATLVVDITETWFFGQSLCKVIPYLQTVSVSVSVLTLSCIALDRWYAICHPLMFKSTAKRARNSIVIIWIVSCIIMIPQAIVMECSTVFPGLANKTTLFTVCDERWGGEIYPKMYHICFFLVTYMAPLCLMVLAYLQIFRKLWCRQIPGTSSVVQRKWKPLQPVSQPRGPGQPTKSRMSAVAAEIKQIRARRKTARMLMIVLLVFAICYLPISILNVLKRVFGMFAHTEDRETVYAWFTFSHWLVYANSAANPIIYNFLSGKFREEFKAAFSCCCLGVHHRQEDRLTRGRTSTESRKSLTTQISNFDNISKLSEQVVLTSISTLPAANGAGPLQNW

[9] = target: T2, Orexin receptor type 2; test: Counterscreen assay for antagonists of the orexin 1 receptor (OX1R; HCRTR1): Homogeneous Time Resolved Fluorescence (HTRF)-based cell-based dose response assay for antagonists of the orexin 2 receptor (OX2R; HCRTR2), run by assay provider.; assay type: functional
[10] = target: T3, Microphthalmia-associated transcription factor (Homo sapiens, UniProt O75030); test: TRPM1 promoter luciferase signal decrease, dose response, MITF inhibitor project, cell-based, SK-MEL-5, cherry-picked, set 3 (AID 493073); assay type: functional
T3 sequence (O75030 whole entry): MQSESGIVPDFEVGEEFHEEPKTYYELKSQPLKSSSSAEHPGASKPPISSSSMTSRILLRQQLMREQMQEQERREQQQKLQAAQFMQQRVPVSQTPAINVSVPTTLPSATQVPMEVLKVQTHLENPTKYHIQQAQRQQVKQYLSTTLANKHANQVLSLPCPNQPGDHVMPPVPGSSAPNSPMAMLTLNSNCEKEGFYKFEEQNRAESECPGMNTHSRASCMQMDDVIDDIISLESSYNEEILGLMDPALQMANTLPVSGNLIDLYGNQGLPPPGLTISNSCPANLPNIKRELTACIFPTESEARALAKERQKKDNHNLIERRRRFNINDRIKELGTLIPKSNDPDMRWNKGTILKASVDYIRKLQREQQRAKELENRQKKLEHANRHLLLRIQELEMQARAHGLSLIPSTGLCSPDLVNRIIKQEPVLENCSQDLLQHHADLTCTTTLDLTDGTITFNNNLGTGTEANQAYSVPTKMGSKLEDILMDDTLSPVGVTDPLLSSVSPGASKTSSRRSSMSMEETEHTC

[11] = tested on: CHO; test: cytotoxicity in TLR9-MyD88 CHO cells, dose response, cytotoxicity control for TLR9-MyD88 binding inhibitor project, cell-based, luminescence (AID 588339); assay type: functional, hamster; conditions: Cricetulus griseus;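 note: CHO cells stably coexpressing TLR9 and MyD88 fusions from primary screen; compound exposure lasted 48 hours before viability readout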
[12] = target: Heat shock protein HSP 90-alpha (Homo sapiens, UniProt P07900); assay type: functional, organism-based
[13] = target: Beta Lactamase (Pseudomonas aeruginosa, UniProt Q932Y6); test: beta-lactamase reporter inhibitor potency, dose response, artefact control for TLR9-MyD88 binding inhibitor project, BLA reporter cells, FRET fluorescence (AID 588341); assay type: cell-based;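 note: cell based assay in CHO-K1 cells stably expressing beta-lactamase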
Chain of Beta Lactamase (Q932Y6 whole entry): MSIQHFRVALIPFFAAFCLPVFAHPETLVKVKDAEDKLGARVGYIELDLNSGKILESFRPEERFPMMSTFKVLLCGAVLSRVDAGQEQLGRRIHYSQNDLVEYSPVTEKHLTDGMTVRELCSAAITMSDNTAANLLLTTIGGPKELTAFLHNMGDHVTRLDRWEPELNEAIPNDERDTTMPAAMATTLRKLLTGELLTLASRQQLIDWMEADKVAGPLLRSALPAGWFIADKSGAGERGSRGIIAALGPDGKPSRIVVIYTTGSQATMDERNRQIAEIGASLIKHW

[14] = target: Latent membrane protein 1 (Human herpesvirus 4 (strain B95-8), UniProt P03230); test: TES1-eGFP NF-kB reporter inhibition versus Tet-On dsRED, dose response, selectivity assay for LMP1 NF-kB inhibitor project, imaging, HEK293T, dual-color eGFP/dsRED, cherry-picks (AID 588398); assay type: functional, cell-based
Chain of Latent membrane protein 1 (P03230 whole entry): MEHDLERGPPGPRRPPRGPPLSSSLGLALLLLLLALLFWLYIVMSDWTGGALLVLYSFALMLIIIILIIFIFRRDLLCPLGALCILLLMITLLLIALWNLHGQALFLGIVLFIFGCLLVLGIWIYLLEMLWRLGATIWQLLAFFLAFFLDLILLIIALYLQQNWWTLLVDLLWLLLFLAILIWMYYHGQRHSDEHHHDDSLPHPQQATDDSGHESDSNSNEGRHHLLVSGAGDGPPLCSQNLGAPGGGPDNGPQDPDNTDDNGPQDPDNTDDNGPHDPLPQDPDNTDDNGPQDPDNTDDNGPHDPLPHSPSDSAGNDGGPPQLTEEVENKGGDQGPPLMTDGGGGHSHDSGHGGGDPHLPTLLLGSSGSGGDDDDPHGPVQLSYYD

[15] = target: T4, Delta-type opioid receptor (Homo sapiens, UniProt P41143); test: HTS Image-Based Screen for Antagonists of the DOR Receptor. [Related pubchem assays (depositor defined):AID1777, AID1785, AID1786, AID2133]; assay type: functional
T4 sequence (P41143 whole entry): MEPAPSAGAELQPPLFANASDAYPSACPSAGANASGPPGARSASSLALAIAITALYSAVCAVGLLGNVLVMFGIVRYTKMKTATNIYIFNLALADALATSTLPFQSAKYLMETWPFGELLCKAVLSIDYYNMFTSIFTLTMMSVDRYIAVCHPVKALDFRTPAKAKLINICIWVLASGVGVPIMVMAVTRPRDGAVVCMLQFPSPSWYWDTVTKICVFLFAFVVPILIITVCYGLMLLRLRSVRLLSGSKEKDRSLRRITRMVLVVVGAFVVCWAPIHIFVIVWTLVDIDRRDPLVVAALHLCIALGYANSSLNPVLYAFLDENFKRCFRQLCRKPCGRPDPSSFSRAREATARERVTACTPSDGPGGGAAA

[16] = target: Mu-type opioid receptor (Homo sapiens, UniProt P35372); test: HTS Image-Based Screen for Agonists of the MOR Receptor. [Related pubchem assays (depositor defined):AID1777, AID1785, AID1786, AID2133]; assay type: functional;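 note: imaging of beta-arrestin GFP recruitment into spots after receptor activation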
Chain of Mu-type opioid receptor (P35372 whole entry): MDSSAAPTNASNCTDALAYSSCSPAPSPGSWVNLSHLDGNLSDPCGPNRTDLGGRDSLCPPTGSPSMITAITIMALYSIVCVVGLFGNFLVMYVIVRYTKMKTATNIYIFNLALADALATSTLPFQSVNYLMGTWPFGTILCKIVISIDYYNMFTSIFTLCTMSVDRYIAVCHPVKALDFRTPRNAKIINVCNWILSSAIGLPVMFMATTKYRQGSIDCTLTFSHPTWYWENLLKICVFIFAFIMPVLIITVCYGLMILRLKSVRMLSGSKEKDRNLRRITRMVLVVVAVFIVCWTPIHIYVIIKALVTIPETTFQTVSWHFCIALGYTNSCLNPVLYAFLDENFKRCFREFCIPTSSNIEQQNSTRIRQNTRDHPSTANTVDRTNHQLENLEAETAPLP

[17] = target: T4, Delta-type opioid receptor; test: HTS Image-Based Screen for Agonists of the DOR Receptor. [Related pubchem assays (depositor defined):AID1777, AID1786, AID2133]; assay type: functional
[18] = target: T5, Beta-galactosidase (Escherichia coli, UniProt Q8VNN2); test: PubChem AID 485352; assay type: functional
T5 sequence (Q8VNN2 whole entry): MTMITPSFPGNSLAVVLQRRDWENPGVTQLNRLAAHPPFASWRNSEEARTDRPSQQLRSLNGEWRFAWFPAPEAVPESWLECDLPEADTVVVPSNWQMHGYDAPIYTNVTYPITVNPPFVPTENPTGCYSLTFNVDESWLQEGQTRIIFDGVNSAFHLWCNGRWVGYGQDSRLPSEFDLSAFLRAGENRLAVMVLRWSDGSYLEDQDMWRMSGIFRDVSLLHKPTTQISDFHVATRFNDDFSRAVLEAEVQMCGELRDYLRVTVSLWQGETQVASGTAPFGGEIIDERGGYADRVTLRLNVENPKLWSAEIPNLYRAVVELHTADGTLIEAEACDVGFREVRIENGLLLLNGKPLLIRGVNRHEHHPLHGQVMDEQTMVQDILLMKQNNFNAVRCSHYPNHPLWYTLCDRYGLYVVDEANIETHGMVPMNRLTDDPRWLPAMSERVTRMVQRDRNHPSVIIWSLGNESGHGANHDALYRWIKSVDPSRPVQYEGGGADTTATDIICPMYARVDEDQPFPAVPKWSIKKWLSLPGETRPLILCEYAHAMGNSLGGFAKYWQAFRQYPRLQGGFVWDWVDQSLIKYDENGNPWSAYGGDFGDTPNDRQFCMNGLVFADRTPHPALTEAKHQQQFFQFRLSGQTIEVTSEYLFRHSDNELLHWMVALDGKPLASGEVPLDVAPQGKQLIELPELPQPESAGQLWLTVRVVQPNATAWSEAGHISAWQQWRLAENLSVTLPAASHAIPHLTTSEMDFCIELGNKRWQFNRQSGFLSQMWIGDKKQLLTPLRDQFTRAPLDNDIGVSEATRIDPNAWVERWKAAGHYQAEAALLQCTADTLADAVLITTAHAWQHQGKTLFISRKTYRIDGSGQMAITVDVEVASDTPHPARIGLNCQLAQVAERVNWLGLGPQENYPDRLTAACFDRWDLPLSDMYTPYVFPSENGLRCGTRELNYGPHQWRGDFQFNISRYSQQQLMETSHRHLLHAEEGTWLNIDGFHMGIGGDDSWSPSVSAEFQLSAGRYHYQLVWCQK

[19] = tested on: Vero; test: host cell cytotoxicity of antiviral hits, dose response, cytotoxicity control for West Nile virus antiviral project, secondary assay (AID 1650); assay type: functional; conditions: Chlorocebus sabaeus
[20] = Luminescence-based dose response cell-based high throughput screening assay for cytotoxic compounds using the IEC-6 intestinal epithelial cell line. [Related pubchem assays: 1858 (Summary AID.), 1825 (Counterscreen.), 1907 (Confirmation screen.)]; assay type: functional
[21] = target: T6, Type-1 angiotensin II receptor (Homo sapiens, UniProt P30556); test: AT1 receptor antagonists, dose response, selectivity assay for APJ receptor antagonist project, cell-based, uHTS hits (AID 463214); assay type: functional;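 note: antagonist potency against angiotensin II stimulated AT1 response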
T6 sequence (P30556 whole entry): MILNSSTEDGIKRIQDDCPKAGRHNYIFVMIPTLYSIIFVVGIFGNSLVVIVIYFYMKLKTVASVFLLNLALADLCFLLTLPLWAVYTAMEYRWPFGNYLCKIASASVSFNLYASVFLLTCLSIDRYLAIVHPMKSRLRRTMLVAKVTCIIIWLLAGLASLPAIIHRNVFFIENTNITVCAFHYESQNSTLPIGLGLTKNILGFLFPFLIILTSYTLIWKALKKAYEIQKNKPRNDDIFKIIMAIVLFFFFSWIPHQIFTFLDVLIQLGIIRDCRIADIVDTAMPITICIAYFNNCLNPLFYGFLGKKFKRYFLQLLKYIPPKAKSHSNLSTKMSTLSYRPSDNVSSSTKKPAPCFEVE

[22] = growth suppression of PTEN-null colon cells, dose response, cell-based, HCT116 PTEN knockout (AID 1047); assay type: functional;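 note: HCT116 colon tumor cells with PTEN knocked out; cells exposed to compound for 60 hours before readout; potency for loss of cell viability measured by luminescence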
[23] = target: Kappa-type opioid receptor (Homo sapiens, UniProt P41145); assay type: functional
Chain of Kappa-type opioid receptor (P41145 whole entry): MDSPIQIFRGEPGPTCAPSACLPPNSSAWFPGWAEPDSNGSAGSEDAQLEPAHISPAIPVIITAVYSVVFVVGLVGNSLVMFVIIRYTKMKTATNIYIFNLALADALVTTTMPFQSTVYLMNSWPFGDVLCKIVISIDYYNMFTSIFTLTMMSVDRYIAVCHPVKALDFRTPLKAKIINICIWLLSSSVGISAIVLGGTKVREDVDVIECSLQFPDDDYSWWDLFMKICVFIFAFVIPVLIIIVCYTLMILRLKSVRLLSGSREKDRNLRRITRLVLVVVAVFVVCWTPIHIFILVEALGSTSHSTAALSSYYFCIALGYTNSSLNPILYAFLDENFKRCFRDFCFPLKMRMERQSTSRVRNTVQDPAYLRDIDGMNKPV

[24] = target: T7, Sphingosine 1-phosphate receptor 4 (Homo sapiens, UniProt O95977); test: Late stage fluorescence dose response cell-based screening assay for antagonists of the Sphingosine 1-Phosphate Receptor 4 (S1P4). [Related pubchem assays: 1524 (Confirmation screen (S1P4 antagonists).), 1510 (Primary screen (S1P4 antagonists).), 1853 (Summary AID (S1P4 antagonists).), 1692 (Dose response screen (S1P4 antagonists).)]; assay type: functional
T7 sequence (O95977 whole entry): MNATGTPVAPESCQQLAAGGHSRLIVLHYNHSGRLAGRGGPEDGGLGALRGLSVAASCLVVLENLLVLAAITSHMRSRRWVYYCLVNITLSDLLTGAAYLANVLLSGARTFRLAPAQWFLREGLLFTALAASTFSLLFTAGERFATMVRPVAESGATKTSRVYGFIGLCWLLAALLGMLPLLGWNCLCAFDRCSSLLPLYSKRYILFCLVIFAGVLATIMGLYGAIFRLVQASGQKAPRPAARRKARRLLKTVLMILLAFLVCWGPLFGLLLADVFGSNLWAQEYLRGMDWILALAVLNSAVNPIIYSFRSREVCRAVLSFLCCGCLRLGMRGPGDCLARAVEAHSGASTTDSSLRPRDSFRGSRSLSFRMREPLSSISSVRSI

[25] = target: T5, Beta-galactosidase; assay type: functional
[26] = growth suppression of beta-catenin-knockout colon cells, dose response, cell-based, HCT116, human colon tumor (AID 1045); assay type: functional;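 note: HCT116 colon tumor cells with beta catenin knocked out; cells exposed to compound for 60 hours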
[27] = target: T7, Sphingosine 1-phosphate receptor 4; test: Fluorescence dose response cell-based high throughput screening assay for antagonists of the Sphingosine 1-Phosphate Receptor 4 (S1P4). [Related pubchem assays: 1524 (Confirmation in triplicates.), 1510 (Primary screen.)]; assay type: functional
[28] = target: Sphingosine 1-phosphate receptor 1 (Homo sapiens, UniProt P21453); assay type: functional;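 note: Tango beta-arrestin reporter U2OS cells stimulated with S1P near its EC80; inhibitor potency meaning antagonism of receptor activation by the natural agonist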
Chain of Sphingosine 1-phosphate receptor 1 (P21453 whole entry): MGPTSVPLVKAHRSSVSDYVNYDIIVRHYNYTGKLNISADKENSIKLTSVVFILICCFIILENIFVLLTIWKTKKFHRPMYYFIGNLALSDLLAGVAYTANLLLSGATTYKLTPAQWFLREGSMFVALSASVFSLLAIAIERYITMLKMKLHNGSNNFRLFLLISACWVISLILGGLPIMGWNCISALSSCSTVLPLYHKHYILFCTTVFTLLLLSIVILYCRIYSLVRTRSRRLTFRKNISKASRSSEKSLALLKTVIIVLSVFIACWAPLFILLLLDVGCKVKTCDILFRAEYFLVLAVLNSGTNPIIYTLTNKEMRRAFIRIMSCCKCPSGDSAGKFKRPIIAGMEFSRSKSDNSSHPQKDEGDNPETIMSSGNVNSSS

[29] = tested on: HEK293; test: cytotoxicity in HEK293T NF-kB-Luc cells, SAR follow-up, cytotoxicity control for NF-kB activator project, cell-based, resazurin fluorescence (AID 493251); assay type: functional; conditions: Homo sapiens
[30] = tested on: Jurkat; test: SAR Analysis of small molecule inhibitors of both B-cell and T-cell specific antigen receptor-induced NF-kB activation in a Jurkat cell line using a luminescence assay. [Related pubchem assays (depositor defined):AID435003, AID435022, AID465, AID489029]; assay type: functional, cell-based; conditions: Homo sapiens
[31] = tested on: HEK293; test: SAR Analysis of small molecule inhibitors of both B-cell and T-cell specific antigen receptor-induced NF-kB activation in a HEK-293T cell line using a luminescence assay. [Related pubchem assays (depositor defined):AID435003, AID435022, AID465, AID489019, AID489029]; assay type: functional, cell-based; conditions: Homo sapiens
[32] = tested on: A-375; test: MITF: Counter assay: A375 proliferation Measured in Cell-Based System Using Plate Reader - 2084-03_Inhibitor_Dose_DryPowder_Activity. [Related pubchem assays (depositor defined):AID488944]; assay type: functional; conditions: Homo sapiens
[33] = tested on: A-375; test: A375 melanoma cell viability reduction, dose response, counter-screen for MITF modulator project, cherry-pick samples, set 2 (AID 540335); assay type: functional, cell-based; conditions: Homo sapiens

CN1C(=O)C2(N=c3ccccc3=N2)c2ccccc21
EC50 [1]: 79.5 µM (active)
EC50 [2]: > 120 µM (not active)
EC50 [3]: > 120 µM (not active)
IC50 [4]: > 66.2 µM (inactive)
IC50 [5]: > 49.7 µM (inactive)
IC50 [6]: 3.22 µM (active)
IC50 [7]: 13.8 µM (inactive)
IC50 [8]: > 88.8 µM (inactive)
IC50 [9]: > 50 µM (inactive)

O=C(c1ccccc1)c1cc(Cl)ccc1N1C(=O)C=CC1=O
AC50 [10]: 11.9 µM (active)
IC50 [11]: 2.26 µM (active)
AC50 [12]: 0.552 µM (active)
IC50 [13]: 14.7 µM (inactive)

OCCN(CCO)CC(O)COCCC12CC3CC(CC(C3)C1)C2 (configuration not stated)
AC50 [14]: 77.6 µM (active)

Cc1ccc(S(=O)(=O)Nc2cccc3cccnc23)cc1
IC50 [15]: > 32 µM (inactive)
EC50 [1]: 13.7 µM (active)
EC50 [16]: > 32 µM (inactive)
EC50 [17]: > 32 µM (inactive)
EC50 [2]: 15.2 µM (active)
EC50 [18]: > 40 µM (inactive)
CC50 [19]: 6.89 µM (active)
EC50 [3]: 11.5 µM (active)
IC50 [20]: 1.84 µM (active)
IC50 [21]: 3.67 µM (active)
EC50 [22]: 2.84 µM (active)
IC50 [23]: 2.57 µM (active)
IC50 [24]: 0.55 µM (active)
EC50 [25]: > 31.5 µM (inactive)
EC50 [26]: 2.5 µM (active)
IC50 [27]: 0.63 µM (active)
IC50 [28]: 1.42 µM (active)
AC50 [10]: 5.55 µM (active)
IC50 [29]: 56.8 µM (inactive)
IC50 [30]: 1.06 µM (active)
IC50 [31]: 18.1 µM (active)
AC50 [32]: > 35 µM (active)
AC50 [33]: > 35 µM (active)
